Measured values published in patent US20240382494A1, “THERAPEUTIC COMPOUNDS” (priority 2023, published 2024).

Tests used:
SARS-CoV-2 PLpro = SARS-CoV-2 PLpro (Severe acute respiratory syndrome coronavirus 2, UniProt P0DTD1); assay: FRET-based PLpro enzymatic assay; format: biochemical; conditions: 200 nM PLpro, 10 μM FRET substrate, 30 min preincubation at 30° C.; read-out: IC50
Experimental: The SARS-CoV-2 PL^pro enzymatic assays were carried out as follows. The assay was assembled in 96-well plates with 100 μl of 200 nM PL^Pro protein in PL^Pro reaction buffer [50 mM Hepes (pH 7.5), 0.01% Triton X-100, and 5 mM DTT]. Then, 1 μl of testing compound at various concentrations was added to each well and incubated at 30° C. for 30 minutes. The enzymatic reaction was initiated by adding 1 μl of 1 mM FRET substrate (the final substrate concentration is 10 μM). The reaction was monitored in a Cytation 5 image reader with filters for excitation at 360/40 nm and emission at 460/40 nm at 30° C. for 1 hour. The initial velocity of the enzymatic reaction with and without testing compounds was calculated by linear regression for the first 15 minutes of the kinetic progress curve. The IC50 values were calculated by plotting the initial velocity against various concentrations of testing compounds with a dose-response function in Prism 8 software.

[1] = Cytotoxicity assay in Vero E6 cells (neutral red uptake); format: cell-based; conditions: African green monkey; Vero E6 cells, 2 days at 37° C., neutral red uptake; read-out: Vero CC50
Experimental: Briefly, 80.000 cells/ml of the tested cell lines were dispensed into 96-well cell culture plates at 100 μl per well Twenty-four hours later, the growth medium was removed and washed with 150 μl of PBS buffer. Two hundred microliters of fresh serum-free medium containing serial diluted compounds was added to each well. After incubating for 2 days at 37° C., the medium was removed and replaced with 100 μl of DMEM medium containing neutral red (40 μg/ml) and incubated for 2 to 4 hours at 37° C. The amount of neutral red taken up was determined by measuring the absorbance at 540 nm using a Multiskan FC Microplate Photometer (Thermo Fisher Scientific) The CC50 values were calculated from best-fit dose-response curves with variable slope in Prism 8.

Compound | IC50 (SARS-CoV-2 PLpro) [µM] | CC50 at 2 days [1] [µM]
Cc1ccc(OCCN(C)C)cc1C(=O)N[C@H](C)c1cc(-c2ccn[nH]2)nc2ccccc12 [Example 15, (R)—N-(1-(2-(1H-pyrazol-5-yl)quinolin-4-yl)ethyl)-5-(2-(dimethylamino)ethoxy)-2-methylbenzamide] | < 0.5 | 63.2 ± 9.51
Cc1ccc(OCCN(C)C)cc1C(=O)N[C@H](C)c1cc(-c2ccc(CN3CCOCC3)s2)nc2ccccc12 [Example 16, (R)-5-(2-(dimethylamino)ethoxy)-2-methyl-N-(1-(2-(5-(morpholinomethyl)thiophen-2-yl)quinolin-4-yl)ethyl)benzamide] | < 0.5 | 30.6 ± 10.6
Cc1ccc(OCCN(C)C)cc1C(=O)N[C@@H](C)c1cc(-c2cnn(C(F)F)c2)nc2ccccc12 [Example 18] | 0.5 to 1 | 47.1 ± 6.43
COCCn1cc(-c2cc([C@H](C)NC(=O)c3cc(OCCN(C)C)ccc3C)c3ccccc3n2)cn1 [Example 19, (S)-5-(2-(dimethylamino)ethoxy)-N-(1-(2-(1-(2-methoxyethyl)-1H-pyrazol-4-yl)quinolin-4-yl)ethyl)-2-methylbenzamide] | 1 to 5 | > 125
Cc1ccc(OCCN(C)C)cc1C(=O)N[C@@H](C)c1cc(-c2cnn(C3CC3)c2)nc2ccccc12 [Example 20, (S)—N-(1-(2-(1-cyclopropyl-1H-pyrazol-4-yl)quinolin-4-yl)ethyl)-5-(2-(dimethylamino)ethoxy)-2-methylbenzamide] | < 0.5 | 59.6 ± 8.56
Cc1ccc(OCCN(C)C)cc1C(=O)N[C@@H](C)c1cc(-c2ccnn2C)nc2ccccc12 [Example 21, (S)-5-(2-(dimethylamino)ethoxy)-2-methyl-N-(1-(2-(1-methyl-1H-pyrazol-5-yl)quinolin-4-yl)ethyl)benzamide] | 0.5 to 1 | 64.7 ± 8.94
Cc1ccc(OCCN(C)C)cc1C(=O)N[C@H](C)c1cc(-c2cnn(CCO)c2)nc2ccccc12 [Example 22, (R)-5-(2-(dimethylamino)ethoxy)-N-(1-(2-(1-(2-hydroxyethyl)-1H-pyrazol-4-yl)quinolin-4-yl)ethyl)-2-methylbenzamide] | < 0.5 | 153 ± 43.9
Cc1ccc(OCCN(C)C)cc1C(=O)N[C@H](C)c1cc(-c2cnn(CC(N)=O)c2)nc2ccccc12 [Example 24, (R)—N-(1-(2-(1-(2-amino-2-oxoethyl)-1H-pyrazol-4-yl)quinolin-4-yl)ethyl)-5-(2-(dimethylamino)ethoxy)-2-methylbenzamide] | < 0.5 | > 250
Cc1ccc(OCCN(C)C)cc1C(=O)N[C@H](C)c1cc(N2CCOCC2)nc2ccccc12 [Example 45, (R)-5-(2-(dimethylamino)ethoxy)-2-methyl-N-(1-(2-morpholinoquinoline-4-yl)ethyl)benzamide] | 0.5 to 1 | 166 ± 33.2
Cc1ccc(OCCN(C)C)cc1C(=O)N[C@H](C)c1cc(-n2cncn2)nc2ccccc12 [Example 47, (R)—N-(1-(2-(1H-1,2,4-triazol-1-yl)quinoline 4-yl)ethyl)-5-(2-(dimethylamino)ethoxy)-2-methylbenzamide] | 0.5 to 1 | 17.5 ± 5.23
Cc1ccc(OCCN(C)C)cc1C(=O)N[C@H](C)c1cc(-c2ccc(N3CCN(C)CC3)s2)nc2ccccc12 [Example 48, (R)-5-(2-(dimethylamino)ethoxy)-2-methyl-N-(1-(2-(5-(4-methylpiperazin-1-yl)thiophen-2-yl)quinolin-4-yl)ethyl)benzamide] | < 0.5 | 15.4 ± 7.94
Cc1ccc(OCCN(C)C)cc1C(=O)N[C@H](C)c1cc(-c2cccc3[nH]ncc23)nc2ccccc12 [Example 50, (R)—N-(1-(2-(1H-indazol-4-yl)quinolin-4-yl)ethyl)-5-(2-(dimethylamino)ethoxy)-2-methylbenzamide] | < 0.5 | 59.5 ± 25.4
Cc1ccc(OCCN(C)C)cc1C(=O)N[C@H](C)c1cc(-c2ccc(CN3CCCC3)s2)nc2ccccc12 [Example 51, (R)-5-(2-(dimethylamino)ethoxy)-2-methyl-N-(1-(2-(5-(pyrrolidin-1-ylmethyl)thiophen-2-yl)quinolin-4-yl)ethyl)benzamide] | < 0.5 | 27.1 ± 14
Cc1ccc(OCCN(C)C)cc1C(=O)N[C@H](C)c1cc(-c2cnn(CC(=O)O)c2)nc2ccccc12 [Example 53, (R)-2-(4-(4-(1-(5-(2-(dimethylamino)ethoxy)-2-methylbenzamido)ethyl)quinolin-2-yl)-1H-pyrazol-1-yl)acetic acid] | < 0.5 | > 250
Cc1ccc(OCCN(C)C)cc1C(=O)N[C@H](C)c1cc(-c2cc[nH]c(=O)c2)nc2ccccc12 [Example 54, (R)-5-(2-(dimethylamino)ethoxy)-2-methyl-N-(1-(2-(2-oxo-1,2-dihydropyridin-4-yl)quinolin-4-yl)ethyl)benzamide] | 0.5 to 1 | > 125
Cc1ccc(OCCN(C)C)cc1C(=O)N[C@H](C)c1cc(-c2ccc(CN)s2)nc2ccccc12 [Example 55, (R)—N-(1-(2-(5-(aminomethyl)thiophen-2-yl)quinolin-4-yl)-ethyl)-5-(2-(dimethylamino)ethoxy)-2-methylbenzamide] | < 0.5 | 34.6 ± 8.18
Cc1ccc(OCCN(C)C)cc1C(=O)N[C@H](C)c1cc(-c2ccc3c(c2)OC(F)(F)O3)nc2ccccc12 [Example 56, (R)—N-(1-(2-(2,2-difluorobenzo[d][1,3]dioxol-5-yl)quinolin-4-yl)ethyl)-5-(2-(dimethylamino)ethoxy)-2-methylbenzamid] | < 0.5 | 15.2 ± 7.09
Cc1ccc(OCCN(C)C)cc1C(=O)N[C@H](C)c1cc(-c2cncnc2)nc2ccccc12 [Example 57, (R)-5-(2-(dimethylamino)ethoxy)-2-methyl-N-(1-(2-(pyrimidin-5-yl)quinolin-4-yl)ethyl)benzamide] | 0.5 to 1 | 74.6 ± 17.4
Cc1ccc(OCCN(C)C)cc1C(=O)N[C@H](C)c1cc(OCc2c(F)c(F)c(F)c(F)c2F)nc2ccccc12 [Example 58, (R)-5-(2-(dimethylamino)ethoxy)-2-methyl-N-(1-(2-((perfluorophenyl)methoxy)quinolin-4-yl)ethyl)benzamide] | > 5 | > 50
Cc1ccc(OCCN(C)C)cc1C(=O)N[C@H](C)c1cc(-c2cnn(CCC#N)c2)nc2ccccc12 [Example 59, (R)—N-(1-(2-(1-(2-cyanoethyl)-1H-pyrazol-4-yl)quinolin-4-yl)ethyl)-5-(2-(dimethylamino)ethoxy)-2-methylbenzamide] | > 5 | 101 ± 15.2
Cc1ccc(OCCN(C)C)cc1C(=O)N[C@H](C)c1cc(-c2cnc3[nH]ccc3c2)nc2ccccc12 [Example 60, (R)—N-(1-(2-(1H-pyrrolo[2,3-b]pyridin-5-yl)-quinolin-4-yl)ethyl)-5-(2-(dimethylamino)ethoxy)-2-methylbenzamide] | > 5 | 25.8 ± 2.25
Cc1ccc(OCCN(C)C)cc1C(=O)N[C@H](C)c1cc(-c2ccc3cn[nH]c3c2)nc2ccccc12 [Example 61, (R)—N-(1-(2-(1H-indazol-6-yl)quinolin-4-yl)ethyl)-5-(2-(dimethylamino)ethoxy)-2-methylbenzamide] | > 5 | 25.7 ± 2.09
Cc1ccc(OCCN(C)C)cc1C(=O)N[C@H](C)c1cc(-c2cnn(C(F)(F)F)c2)nc2ccccc12 [Example 63, (R)-5-(2-(dimethylamino)ethoxy)-2-methyl-N-(1-(2-(1-(trifluoro-methyl)-1H-pyrazol-4-yl)quinolin-4-yl)ethyl)benzamide] | < 0.5 | 17.7 ± 2.04
Cc1ccc(OCCN(C)C)cc1C(=O)N[C@H](C)c1cc(-c2cnn(C3CCC3)c2)nc2ccccc12 [Example 64, (R)—N-(1-(2-(1-cyclobutyl-1H-pyrazol-4-yl)quinolin-4-yl)ethyl)-5-(2-(dimethylamino)ethoxy)-2-methylbenzamide] | < 0.5 | 25.3 ± 5.82
Cc1ccc(OCCN(C)C)cc1C(=O)N[C@H](C)c1cc(-c2cnn(C(C)(C)C)c2)nc2ccccc12 [Example 65, (R)—N-(1-(2-(1-(tert-butyl)-1H-pyrazol-4-yl)quinolin-4-yl)ethyl)-5-(2-(dimethyl-amino)ethoxy)-2-methylbenzamide] | < 0.5 | 19.1 ± 2.75
Cc1ccc(OCCN(C)C)cc1C(=O)N[C@H](C)c1cc(-c2cncn2C)nc2ccccc12 [Example 66, (R)-5-(2-(dimethylamino)ethoxy)-2-methyl-N-(1-(2-(1-methyl-1H-imidazol-5-yl)quinolin-4-yl)ethyl)benzamide] | < 0.5 | 79.5 ± 8.62
COc1cccc(-c2cc([C@@H](C)NC(=O)c3cc(OCCN(C)C)ccc3C)c3ccccc3n2)c1 [Example 67, (R)-5-(2-(dimethylamino)ethoxy)-N-(1-(2-(3-methoxyphenyl)-quinolin-4-yl)ethyl)-2-methylbenzamide] | < 0.5 | 17.2 ± 3.25
